Source: patent publication EP0364581A1, “METHOD OF STERILIZING PLANT POLLEN” (VSESOJUZNY NAUCHNO-ISSLEDOVATELSKY INST. SELSKOKHOZYAISTV. …, priority 1988, dated 1989)

How the values were obtained:
Assay in all cases: field test of gametocidal activity (sterilisation of anthers)
[1] = system: Sommerweizens Sorte Rodina; assay type: in vivo, Sommerweizen; conditions: V. und VI. Periode, 1%ige wäßrige Emulsion, 6 kg/ha; for Prozentsatz des Ansetzens der Körner bei freier Bestäubung: control = 100
Text: (§1) Die gametozide Aktivität der erfindungsgemäßen Sterilisationsmittel war in Feldversuch in verschiedenen bodenklimatischen Zonen mit Teilstücken von 10 m^2 Größe in drei-- bis viermaliger Wiederholung nachgewiesen. Jedes Sterilisationsmittel wurde mindestens 5 Jahre lang geprüft.
(§2) Die Entwicklung der Perioden der Organogenese wird zytologisch überwacht. Die Behandlung von Pflanzen mit dem Sterilisationsmittel erfolgt am Anfang der fünften Periode der Organogenese nach Kupermann.
(§3) Mit dem Ahrenschieben verwirklicht man die Isolierung von Hauptähren und anderen Stockwerken in Pergamentbeuteln. Bei Weizen und Tritikale werden Einzelisolatoren verwendet. Bei Roggen schließt man je 1 Ähre von 5 bis 7 verschiedenen nebeneinander befindlichen Pflanzen in einen gemeinsamen Isolator ein. Bei Hirse wird jede Rispe getrennt isoliert. Der Sterilitätsprozentsatz (X) für Weizen, Roggen, Tritikale und Hirse wird nach der Formel [formula]
(§4) Samen von unbehandelten Kontrollpflanzen ermittelt.
(§5) Die Kornzahl in nicht isolierten Ähren von Kontrollpflanzen wird bedingt für 100% Ansetzen bei freier Bestäubung angenommen.
(§6) Um zuverlässige Angaben zu erhalten, verwendet man 20 bis 25 Isolatoren jeder Wiederholung für Weizen und Tritikale, 10 bis 15 Isolatoren jeder Wiederholung für Roggen und Hirse.
Pflanzen des Sommerweizens Sorte Rodina werden in der V. und VI. Periode der Organogenese (nach Kupermann) mit einer l%igen wäßrigen Emulsion von Ammoniumsalz der 2-Methyl-3-zyklohexenkarbonsäure, Phthalsäuredihexylester, Phthalsäurediisobutylester behandelt. Die Emulsion enthält 0,01 Masse% Dodezysulfat und 0,1 Masse% C12-C14--Kalziumalkylbenzolsulfonat. Der Verbrauch an Präparat beträgt 6 kg/ha. Als Kontrolle dienen Pflanzen, behandelt mit einem Verdünner ohne Sterilisationsmittel.

[2] = system: Winterweizens Sorte Priboi; assay type: in vivo, Winterweizen; conditions: V. und VI. Periode, 2%ige wäßrige Emulsion, 12 kg/ha; for Prozentsatz des Ansetzens der Körner bei freier Bestäubung: control = 100
Text: as §1, §2, §3, §4, §5, §6
Pflanzen des Winterweizens Sorte Priboi werden in der V. und VI. Periode der Organogenese (nach Kupermann) mit einer 2%igen wäßrigen Emulsion von Kaliumsalz der 2-Methyl--3-zyklohexenkarbonsäure, 2-Methyl-3-zyklohexenkarbonsäure- methylester, Pnthalsäuredipropylester, Phthalsäurediisobutylester behandelt. Die Emulsion enthält 0,01 Masse% Dimethylsulfoxid und 0,1 Masse% C12-C14 -Kalziumalkylbenzolsulfonat. Der Verbrauch an Präparat beträgt 12 kg/ha. Als Kontrolle dienen Pflanzen, behandelt mit einem Verdünner ohne Sterilisationsmittel.

[3] = system: Sommerweizens Sorte Botanicheskaya 4; assay type: in vivo, Sommerweizen; conditions: V. Periode, 1%ige wäßrige Emulsion, 8 kg/ha; for Prozentsatz des Ansetzens der Körner bei freier Bestäubung: control = 100
Text: as §1, §2, §3, §4, §5, §6
Pflanzen des Sommerweizens Sorte Botanicheskaya 4 werden in der V. Periode der Organogenese (nach kupermann) mit einer l%igen wäßrigen Emulsion von Phthalsäuredibutylester, Phthalsauredipropylester, Natriumsalz der 2-Methyl-3-zyklo- hexenkarbonsäure, 2-Methyl-3-zyklohexenkarbonsäuremethyl- ester behandelt. Die Emulsion enthalt 0,01 Masse% Tetrahydrofuran und 0,1 Masse% C12-C14-Kalziumalkylbenzolsulfonat. Der Verbrauch an Präparat beträgt 8 kg/ha. Als Kontrolle dienen Pflanzen, behandelt mit einem Verdünner ohne Sterilisationsmittel

[4] = system: Tritikale der Sorte PRAG-109; assay type: in vivo; conditions: V. Periode, 1%ige wäßrige Emulsion, 10 kg/ha
Text: as §1, §2, §3, §4, §5, §6
Pflanzen Tritikale der Sorte PRAG-109 werden in der V. Periode der Organogenese (nach Kupermann) mit einer 1%igen wäßrigen Emulsion von Phthalsäuredibutylester, Phthalsäurediäthylester, Phthalsäuredihexylester, Phthalsäurediisobutylester, Kaliumsalz der 2-Methyl-3-zyklohexenkarbon- säure, 2-Methyl-3-zyklohexenkarbonsäuremethylester behandelt. Die Emulsion enthält 0,01 Masse% Dimethylsulfoxid und 0,1 Masse% C12C14- Kalziumalkylbenzolsulfonat. Der Verbrauch an Präparat beträgt 10 kg/ha. Als Kontrolle dienen Pflanzen, behandelt mit einem Verdünner ohne Sterilisationsmittel. […]
In allen Fällen dienen als Kontrolle Pflanzen, behandelt mit einem Verdünner ohne Sterilisationsmittel. Die Prüfergebnisse sind in der Tabelle 20 angeführt. […] Periode der Organogenese erhalten.

[5] = system: Tritikale Sorte Amfidiploid 206; assay type: in vivo; conditions: V. Periode, 1%ige wäßrige Emulsion, 6 kg/ha; for Prozentsatz des Ansetzens bei freier Bestäubung: control = 100
Text: as §1, §2, §3, §4, §5, §6
Pflanzen Tritikale Sorte Amfidiploid 206 werden in der V.Periode der Organogenese (nach Kupermann) mit einer l%igen wäßrigen Emulsion von Phthalsäuredipropylester, Phthalsäurediisobutylester, Kaliumsalz der 2-Methyl-3-zyklohexenkarbon- säure, 2-Methyl-3-zyklohexenkarbonsäuremethylester, Ammoniumsalz der 2-Methyl-3-zyklohexenkarbonsäure behandelt. Die Emulsion enthält 0,01 Masse% Tetrahydrofuran und 0,1 Masse% C12-C14-Kalziumalkylbenzolsulfonat. Der Verbrauch an Präparat beträgt 6 kg/ha. Als Kontrolle dienen Pflanzen, behandelt mit einem Verdünner ohne Sterilisationsmittel.

[6] = system: tetraploidem Roggen Sorte Ukrainskaya; assay type: in vivo; conditions: V. Periode, wäßrige Emulsion (concentration not given), 6 kg/ha; for Prozentsatz des Ansetzens der Körner bei freier Bestäubung: control = 100
Text: as §1, §2, §3, §4, §5, §6
Pflanzen von tetraploidem Roggen Sorte Ukrainskaya werden in der V. Periode der Organogenese (nach Kupermann) mit einer wäßrigen Emulsion von Ammoniumsalz der 2-Methyl-3--zyklohexenkarbonsäure, Phthalsäurediäthylester, Kaliumsalz der Benzoesäure, Phthalsäurediisobutylester behandelt. Die Emulsion enthält 0,01 Masse% Dimethylformamid und 0,1 Masse% C12-C14-Kalziumalkylbenzolsulfonat. Der Verbrauch an Präparat beträgt 6 kg/ha. Als Kontrolle dienen Pflanzen, behandelt mit einem Verdünner ohne Sterilisationsmittel. Die Prüfergebnisse sind in der Tabelle 11 angeführt. […] Periode der Organogenese erhalten.

With CC1C=CCCC1C(=O)O.N (stereo not drawn) [Beispiel 34, Ammoniumsalz der 2-Methyl-3-zyklohexenkarbonsäure] the “Kornzahl der Ähre bei freier Bestäubung” value [1] was 30,8, the “Kornzahl der Ähre im Isolator” value [1] was 0,0 and the “Prozentsatz der Sterilität” value [1] was 100,0%. For the same compound, the “Prozentsatz des Ansetzens der Körner bei freier Bestäubung” value [1] was 84,1%.

For CC1C=CCCC1C(=O)[O-].[K+] (stereo not drawn) [Beispiel 14, Kaliumsalz der 2-Methyl--3-zyklohexenkarbonsäure], the “Kornzahl der Ähre bei freier Bestäubung” value [2] was 35,1, the “Kornzahl der Ähre im Isolator” value [2] was 0,0 and the “Prozentsatz der Sterilität” value [2] was 100,0%. The “Prozentsatz des Ansetzens der Körner bei freier Bestäubung” value [2] was 95,4%.

CC(C)COC(=O)c1ccccc1C(=O)OCC(C)C [Beispiel 36, Phthalsäurediisobutylester] was tested, and the “Kornzahl der Ähre bei freier Bestäubung” value [1] was 31,7, the “Kornzahl der Ähre im Isolator” value [1] was 0,0 and the “Prozentsatz der Sterilität” value [1] was 100,0%. For the same compound, the “Prozentsatz des Ansetzens der Körner bei freier Bestäubung” value [1] was 86,6%.

With CCCCOC(=O)c1ccccc1C(=O)OCCCC [Beispiel 30, Phthalsäuredibutylester] the “Kornzahl der Ähre bei freier Bestäubung” value [3] was 30,6, the “Kornzahl der Ähre im Isolator” value [3] was 0,2 and the “Prozentsatz der Sterilität” value [3] was 99,4%. For the same compound, the “Prozentsatz des Ansetzens der Körner bei freier Bestäubung” value [3] was 81,8%, the “Kornzahl der Ähre bei freier Bestäubung” value [4] was 66,8 and the “Kornzahl der Ähre im Isolator” value [4] was 1,0. The “Prozentsatz der Sterilität” value [4] was 98,4% and the “Prozentsatz des Ansetzens der Körner bei freier Bestäubung” value ([4]; control = 100) was 96,8%.

In the case of COC(=O)C1CCC=CC1C (stereo not drawn) [Beispiel 33, 2-Methyl-3-zyklohexenkarbonsäuremethyl-ester], the “Kornzahl der Ähre bei freier Bestäubung” value [3] is reported as 34,2, the “Kornzahl der Ähre im Isolator” value [3] is reported as 0,0 and the “Prozentsatz der Sterilität” value [3] is reported as 100,0%. For the same compound, the “Prozentsatz des Ansetzens der Körner bei freier Bestäubung” value [3] was 91,4%.

CC1C=CCCC1C(=O)[O-].[Na+] (stereo not drawn) [Beispiel 32, Natriumsalz der 2-Methyl-3-zyklo-hexenkarbonsäure] was tested, and the “Kornzahl der Ähre bei freier Bestäubung” value [3] was 32,9, the “Kornzahl der Ähre im Isolator” value [3] was 1,0 and the “Prozentsatz der Sterilität” value [3] was 97,0%. The “Prozentsatz des Ansetzens der Körner bei freier Bestäubung” value [3] was 88,0%.

In the case of COC(=O)C1CCC=CC1C (stereo not drawn) [Beispiel 15, 2-Methyl-3-zyklohexenkarbonsäure-methylester], the “Kornzahl der Ähre bei freier Bestäubung” value [2] is reported as 34,8, the “Kornzahl der Ähre im Isolator” value [2] is reported as 0,0 and the “Prozentsatz der Sterilität” value [2] is reported as 100,0%. For the same compound, the “Prozentsatz des Ansetzens der Körner bei freier Bestäubung” value [2] was 94,6%.

With CCCOC(=O)c1ccccc1C(=O)OCCC [Beispiel 43, Phthalsäuredipropylester] the “Kornzahl der Ähre bei freier Bestäubung” value [5] was 31,8, the “Kornzahl der Ähre im Isolator” value [5] was 0,0 and the “Prozentsatz der Sterilität” value [5] was 100,0%. For the same compound, the “Prozentsatz des Ansetzens bei freier Bestäubung” value [5] was 87,3%.

For CC1C=CCCC1C(=O)O (stereo not drawn) [Beispiel 56, Ammoniumsalz der 2-Methyl-3--zyklohexenkarbonsäure], the “Kornzahl der Ähre bei freier Bestäubung” value [6] was 32,1, the “Kornzahl der Ähre im Isolator” value [6] was 0,0 and the “Prozentsatz der Sterilität” value [6] was 100,0%. The “Prozentsatz des Ansetzens der Körner bei freier Bestäubung” value [6] was 87,2%.

For CCCOC(=O)c1ccccc1C(=O)OCCC [Beispiel 31, Phthalsauredipropylester], the “Kornzahl der Ähre bei freier Bestäubung” value [3] was 31,5, the “Kornzahl der Ähre im Isolator” value [3] was 0,5 and the “Prozentsatz der Sterilität” value [3] was 98,5%. The “Prozentsatz des Ansetzens der Körner bei freier Bestäubung” value [3] was 84,2%.

For COC(=O)C1CCC=CC1C (stereo not drawn) [Beispiel 46, 2-Methyl-3-zyklohexenkarbonsäuremethylester], the “Kornzahl der Ähre bei freier Bestäubung” value [5] was 32,6, the “Kornzahl der Ähre im Isolator” value [5] was 0,0 and the “Prozentsatz der Sterilität” value [5] was 100,0%. For the same compound, the “Prozentsatz des Ansetzens bei freier Bestäubung” value [5] was 89,6%.

For CC(C)COC(=O)c1ccccc1C(=O)OCC(C)C [Beispiel 59, Phthalsäurediisobutylester], the “Kornzahl der Ähre bei freier Bestäubung” value [6] was 34,7, the “Kornzahl der Ähre im Isolator” value [6] was 0,0 and the “Prozentsatz der Sterilität” value [6] was 100,0%. The “Prozentsatz des Ansetzens der Körner bei freier Bestäubung” value [6] was 94,2%.

CC(C)COC(=O)c1ccccc1C(=O)OCC(C)C [Beispiel 17, Phthalsäurediisobutylester] was tested, and the “Kornzahl der Ähre bei freier Bestäubung” value [2] was 33,7, the “Kornzahl der Ähre im Isolator” value [2] was 0,0 and the “Prozentsatz der Sterilität” value [2] was 100,0%. The “Prozentsatz des Ansetzens der Körner bei freier Bestäubung” value [2] was 91,6%.

CC(C)COC(=O)c1ccccc1C(=O)OCC(C)C [Beispiel 44, Phthalsäurediisobutylester] was tested, and the “Kornzahl der Ähre bei freier Bestäubung” value [5] was 32,5, the “Kornzahl der Ähre im Isolator” value [5] was 0,0 and the “Prozentsatz der Sterilität” value [5] was 100,0%. The “Prozentsatz des Ansetzens bei freier Bestäubung” value [5] was 89,3%.

For O=C(O)c1ccccc1 [Beispiel 58, Kaliumsalz der Benzoesäure], the “Kornzahl der Ähre bei freier Bestäubung” value [6] was 35,8, the “Kornzahl der Ähre im Isolator” value [6] was 4,2 and the “Prozentsatz der Sterilität” value [6] was 85,0%. For the same compound, the “Prozentsatz des Ansetzens der Körner bei freier Bestäubung” value [6] was 97,3%.

In the case of CC1C=CCCC1C(=O)O (stereo not drawn) [Beispiel 47, Ammoniumsalz der 2-Methyl-3-zyklohexenkarbonsäure], the “Kornzahl der Ähre bei freier Bestäubung” value [5] is reported as 37,5, the “Kornzahl der Ähre im Isolator” value [5] is reported as 6,8 and the “Prozentsatz der Sterilität” value [5] is reported as 79,7%. The “Prozentsatz des Ansetzens bei freier Bestäubung” value [5] was 103,1%.

With CCCCCCOC(=O)c1ccccc1C(=O)OCCCCCC [Beispiel 35, Phthalsäuredihexylester] the “Kornzahl der Ähre bei freier Bestäubung” value [1] was 33,6, the “Kornzahl der Ähre im Isolator” value [1] was 0,0 and the “Prozentsatz der Sterilität” value [1] was 100,0%. The “Prozentsatz des Ansetzens der Körner bei freier Bestäubung” value [1] was 91,8%.

In the case of CCCOC(=O)c1ccccc1C(=O)OCCC [Beispiel 16, Pnthalsäuredipropylester], the “Kornzahl der Ähre bei freier Bestäubung” value [2] is reported as 32,6, the “Kornzahl der Ähre im Isolator” value [2] is reported as 5,6 and the “Prozentsatz der Sterilität” value [2] is reported as 82,6%. For the same compound, the “Prozentsatz des Ansetzens der Körner bei freier Bestäubung” value [2] was 88,6%.

For CC1C=CCCC1C(=O)O (stereo not drawn) [Beispiel 45, Kaliumsalz der 2-Methyl-3-zyklohexenkarbon-säure], the “Kornzahl der Ähre bei freier Bestäubung” value [5] was 31,8, the “Kornzahl der Ähre im Isolator” value [5] was 0,1 and the “Prozentsatz der Sterilität” value [5] was 99,7%. The “Prozentsatz des Ansetzens bei freier Bestäubung” value [5] was 87,3%.

CCOC(=O)c1ccccc1C(=O)OCC [Beispiel 57, Phthalsäurediäthylester] was tested, and the “Kornzahl der Ähre bei freier Bestäubung” value [6] was 30,7, the “Kornzahl der Ähre im Isolator” value [6] was 0,0 and the “Prozentsatz der Sterilität” value [6] was 100,0%. The “Prozentsatz des Ansetzens der Körner bei freier Bestäubung” value [6] was 83,4%.
